The text below walks through data of PubChem BioAssay AID2060602 (Molecular Pharmacology Branch, DTP, NCI, 2025).

The test deals with 648629-189-R-J1-PDC complex spheroids viability. As to the kind of experiment: Anticancer human tumor 648629-189-R-J1-PDC patient-derived bladder carcinoma cell line growth inhibition [CLK]. As to conditions: for viability, T/C: stronger effect = lower value. Put shortly: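 Patient-derived tumor cells grown as complex spheroids with HUVEC endothelial cells and mesenchymal stem cells, treated with drug combinations. Concentrations descend in half-log steps from near clinical Cmax, or from 10 microM if Cmax unknown.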

[1] abbreviates: curve of first compound, second compound 0.0316 µM.
Where [2] appears, read: curve of first compound, second compound 0.1 µM.
Where [3] appears, read: curve of first compound, second compound 0.316 µM.
[4] abbreviates: curve of first compound, second compound 1 µM.
[5] abbreviates: curve of first compound, second compound 3.16 µM.
Setting [6] is: curve of first compound, second compound 10 µM.
Setting [7] is: second compound 0.0316 µM, first compound 0.0316 µM.
Where [8] appears, read: second compound 0.0316 µM, first compound 0.1 µM.
Where [9] appears, read: second compound 0.1 µM, first compound 0.0316 µM.
The mark [10] stands for this setting: second compound 0.1 µM, first compound 0.1 µM.
Where [11] appears, read: second compound 0.316 µM, first compound 0.0316 µM.
The mark [12] stands for this setting: second compound 0.316 µM, first compound 0.1 µM.
[13] abbreviates: second compound 1 µM, first compound 0.0316 µM.
[14] abbreviates: second compound 1 µM, first compound 0.1 µM.
Where [15] appears, read: second compound 3.16 µM, first compound 0.0316 µM.
Where [16] appears, read: second compound 3.16 µM, first compound 0.1 µM.
The mark [17] stands for this setting: second compound 10 µM, first compound 0.0316 µM.
Setting [18] is: second compound 10 µM, first compound 0.1 µM.

Values joined by “and” are separate entries in the source; they are usually repeats but may differ in a detail not shown here. Equal entries are not always repeated. A value given as a limit tells only on which side of the number the result lay.
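Wherever viability, T/C is given: drug exposure lasted seven days before viability readout; 100% = DMSO vehicle control wells.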

For orientation: IC50 means the concentration that inhibits the measured activity by half. In general, viability, T/C refers to the result in the treated group divided by that in the control group, in per cent. Turning to `CC1COCCN1c1cc(C2(S(C)(=N)=O)CC2)nc(-c2ccnc3[nH]ccc23)n1` (stereo not given) + CNC(=O)c1ccc(Nc2nc(OC3CCCC3)c3c(-c4ccc5nc(C)oc5c4)c[nH]c3n2)c(OC)c1, the 50% inhibitory concentration (IC50) was 2410 nM under setting [1]; 3430 nM under setting [2]; below 31.6 nM under setting [3]; below 31.6 nM under setting [4]; below 31.6 nM under setting [5]; below 31.6 nM under setting [6]. For the same compound, the viability, T/C reads like this: under setting [7], 112%; under setting [8], 115%; (second compound 0.0316 µM, first compound 0.316 µM) 98.5%; (second compound 0.0316 µM, first compound 1 µM) 83.4%; (second compound 0.0316 µM, first compound 3.16 µM) 38.6%; (second compound 0.0316 µM, first compound 10 µM) 19.3%. Moreover, the viability, T/C was 90.2% under setting [9]; 96.3% under setting [10]; 92.1% (second compound 0.1 µM, first compound 0.316 µM); 74.2% (second compound 0.1 µM, first compound 1 µM); 53.5% (second compound 0.1 µM, first compound 3.16 µM); 21.3% (second compound 0.1 µM, first compound 10 µM). Besides, the viability, T/C is 28.9% under setting [11]; 34.6% under setting [12]; 34.6% (second compound 0.316 µM, first compound 0.316 µM); 32.4% (second compound 0.316 µM, first compound 1 µM); 22.4% (second compound 0.316 µM, first compound 3.16 µM); 15.3% (second compound 0.316 µM, first compound 10 µM). Also, the viability, T/C reads like this: under setting [13], 20.5%; under setting [14], 25.6%; (second compound 1 µM, first compound 0.316 µM) 19.7%; (second compound 1 µM, first compound 1 µM) 19.2%; (second compound 1 µM, first compound 3.16 µM) 18.9%; (second compound 1 µM, first compound 10 µM) 16%. In addition, the viability, T/C is, setting by setting: under setting [15], 16.4%; under setting [16], 21.8%; (second compound 3.16 µM, first compound 0.316 µM) 22.3%; (second compound 3.16 µM, first compound 1 µM) 23.1%; (second compound 3.16 µM, first compound 3.16 µM) 21.7%; (second compound 3.16 µM, first compound 10 µM) 13.9%. Moreover, the viability, T/C is 18.6% under setting [17]; 19.7% under setting [18]; 20.8% (second compound 10 µM, first compound 0.316 µM); 20.1% (second compound 10 µM, first compound 1 µM); 21.9% (second compound 10 µM, first compound 3.16 µM); 12.4% (second compound 10 µM, first compound 10 µM).

For `C=C(F)C(=O)N1CCN(c2nc(OCC3CCCN3C)nc3c2CCN(c2cccc4cccc(Cl)c24)C3)CC1CC#N` (stereo not given), the viability, T/C reads like this: (compound 0.0316 µM) 103% and 97.9%; (compound 0.1 µM) 97.9% and 98.3%; (compound 0.316 µM) 101% and 99%; (compound 1 µM) 87.8% and 95.9%; (compound 3.16 µM) 98% and 93.7%; (compound 10 µM) 0.23% and 0.2%. In addition, the IC50 (curve of compound) was 5550 nM and 5420 nM.

`O=C(c1cc(Cc2n[nH]c(=O)c3ccccc23)ccc1F)N1CCN(C(=O)C2CC2)CC1`: the viability, T/C by setting is: (compound 0.0316 µM) 109% and 101%; (compound 0.1 µM) 90.8% and 97.7%; (compound 0.316 µM) 92% and 108%; (compound 1 µM) 79.5% and 103%; (compound 3.16 µM) 75.7% and 84.3%; (compound 10 µM) 57.9% and 71.5%. Where the note is “curve of compound”, the IC50 is above 10000 nM.

On to `Cn1ncnc1[C@H]1c2n[nH]c(=O)c3cc(F)cc(c23)N[C@@H]1c1ccc(F)cc1` + CN1CCN(c2cc(C(=O)Nc3cc4cc(-c5cnn(C)c5)ccc4cn3)ccn2)CC1, for which the half-maximal inhibitory concentration (IC50) was above 100 nM under setting [1]; above 100 nM under setting [2]; below 0.316 nM under setting [3]; below 0.316 nM under setting [4]; below 0.316 nM under setting [5]; below 0.316 nM under setting [6]. Besides, the viability, T/C by setting is: (second compound 0.0316 µM, first compound 0.000316 µM) 129%; (second compound 0.0316 µM, first compound 0.001 µM) 116%; (second compound 0.0316 µM, first compound 0.00316 µM) 107%; (second compound 0.0316 µM, first compound 0.01 µM) 90.2%; under setting [7], 87.8%; under setting [8], 69.7%. Moreover, the viability, T/C by setting is: (second compound 0.1 µM, first compound 0.000316 µM) 111%; (second compound 0.1 µM, first compound 0.001 µM) 97.2%; (second compound 0.1 µM, first compound 0.00316 µM) 94.8%; (second compound 0.1 µM, first compound 0.01 µM) 93.5%; under setting [9], 87.7%; under setting [10], 81.2%. The viability, T/C by setting is: (second compound 0.316 µM, first compound 0.000316 µM) 46%; (second compound 0.316 µM, first compound 0.001 µM) 39.1%; (second compound 0.316 µM, first compound 0.00316 µM) 43.5%; (second compound 0.316 µM, first compound 0.01 µM) 40.1%; under setting [11], 35.3%; under setting [12], 35.6%. Besides, the viability, T/C (second compound 1 µM, first compound 0.000316 µM) was 0.38%; the viability, T/C (second compound 1 µM, first compound 0.001 µM) was 0.8%; the viability, T/C (second compound 1 µM, first compound 0.00316 µM) was 0.73%; the viability, T/C (second compound 1 µM, first compound 0.01 µM) was 0.22%; the viability, T/C under setting [13] was 0.2%; the viability, T/C under setting [14] was 1.42%. Further, the viability, T/C runs as follows: (second compound 3.16 µM, first compound 0.000316 µM) 0.1%; (second compound 3.16 µM, first compound 0.001 µM) 0.5%; (second compound 3.16 µM, first compound 0.00316 µM) 0.12%; (second compound 3.16 µM, first compound 0.01 µM) 0.08%; under setting [15], 0.08%; under setting [16], 0.16%. Moreover, the viability, T/C (second compound 10 µM, first compound 0.000316 µM) was 0.12%; the viability, T/C (second compound 10 µM, first compound 0.001 µM) is 0.13%; the viability, T/C (second compound 10 µM, first compound 0.00316 µM) is 0.82%; the viability, T/C (second compound 10 µM, first compound 0.01 µM) is 0.14%; the viability, T/C under setting [17] was 0.13%; the viability, T/C under setting [18] is 0.15%.

Take `O=c1[nH]cc(F)c(=O)[nH]1`: the viability, T/C (compound 0.0316 µM) was 101% and 97.3%; the viability, T/C (compound 0.1 µM) was 92.7% and 84.2%; the viability, T/C (compound 0.316 µM) is 80.1% and 69.3%; the viability, T/C (compound 1 µM) is 57.8% and 36%; the viability, T/C (compound 3.16 µM) was 29.1% and 31.9%; the viability, T/C (compound 10 µM) was 19.3% and 26.1%. Besides, the 50% inhibitory concentration (IC50) (curve of compound) is 1310 nM and 632 nM.
